This is an account of results in patent US20060014709A1, “Drug or cosmetic” (priority 2002, published 2006).

Several values for one entry are separate records, joined by “and”; a condition that tells them apart may be missing. Identical values can stand only once. Entries after “also recorded” stand apart in the source; their conditions may differ. Marks after values point to notes of the source that are not given here.

Test [1] relates to male SD rats, obstruction-released kidney (glomerular lesions and tubulointerstitial lesions). In words: Obstruction release model after complete obstruction of unilateral ureter for 14 days (Example 2-1). Type of test: in vivo. Details: key to Tubulointerstitial lesions: level of lesions (quality): summed lesion score: + = 1, ++ = 2, +++ = 3 points. Conditions: rat. The source says: That is, the rat was laparotomized under anesthesia with ether and left ureter was ligated with 7-0 Nylon at the height of the margin of lower pole of kidney to close the abdomen. On the 14th day after obstruction, the obstruction was released and urinary passage was reconstructed using a cuff. Thus, after 14 days, the part of ligated obstructed ureter was resected, a polyethylene tube of 25 gages (manufactured by Nippon Sherwood) was used as a cuff and inserted into and retained at the lumen from the cut end of the lower normal ureter, then the cuff was also retained in the expanded upper ureter and each of them was ligated and fixed by 7-0 Nylon to reconstruct the urinary passage. At the same time, the right kidney at the opposite side was excised. After the release of the obstruction, body weight was measured, blood was drawn on the 2nd day, 5th day and 7th day from the release to measure serum creatinine, then the rat was killed under anesthesia and the left obstruction-released kidney was excised.
With regard to the excised kidney, there were carried out measurements of weight of the kidney, creatinine concentration mg/dl in plasma as an indicator of kidney function and pathological test for the kidney, and also leukocyte cells which infiltrate the obstruction-released kidney were immunopathologically studied with cell surface markers for ED1 macrophages, CD11b (ED8) positive macrophages and CD5 positive lymphocytes. A number of positive cells was expressed as a number of cells per glomerulus from measured numbers of positive cells in five glomeruli, and for a number in tubulointerstitial tissue, it was expressed by the total number of cells existing in five fields of 200×magnification. For macrophages, a number of CD11b positive cells existing in glomerulus was considered as a number of CD11b^+CD2^+ macrophages and a case of existing not less than one positive cell per glomerulus was considered as positive (+). In the tubulointerstitial tissue, a number of […] 60 CD11b positive cells was considered as positive (+), or a case of CD11b^−CD2^+ macrophages dominantly increasing. Scoring of evaluation of tubulointerstitial lesions was as follows: + gets 1-point as a light lesion; ++ gets 2-point as a moderate lesion; and +++ gets3-point as a severe lesion. For glomerular lesions, when a proportion of lesioned glomeruli was decreased to not more than 40%, and for tubulointerstitial lesions, when a score of the lesions was not more than 4, it was considered as improved.
For glomerular lesions, by counting glomeruli causing thickening of Bowman's capsule wall and glomerular hyalinosis, a proportion of glomeruli having lesions was calculated. For tubulointerstitial lesions, by qualifying hyperplasia of tubular basement membrane and interstitial fibrosis, levels of the lesions were represented.
An in vivo biological test was carried out for the γ-lactone derivative according to the present invention using this model. Bulk powder of a test compound was dissolved in sterile physiological saline together with gum arabic, and concentrations of the test compound and gum arabic were adjusted to 30 mg/mL and 5% respectively. The preparation was administered orally or subcutaneously injected at the dose of 30 mg/kg or 3 mg/kg every day. The administration was conducted for the total 21 days of the obstructed period for 14 days and after release of the obstruction for 7 days.
For test groups, a group administered single compound group, a group administered both compound group and a control group administered solution of gum arabic were set up and compared for renal functions and morphological evaluations, as well as numbers of ED1, CD5, CD11b positive cells by means of immunopathology.

The test system of test [2] is male SDT rats (spontaneously type II diabetes model), complete skin-excised wounds. The test can be described thus: Complete skin-excised model, wound healing. Type of test: in vivo. As to conditions: SDT rat, 10 mg/kg subcutaneously every day. The text has this: Using male SDT rats of 28-30 weeks age, which were a spontaneously type II diabetes model, promoting effect on repair and regeneration in wound healing after complete skin excision were examined according to a partially modified method of Breitbout AS et al. (Ann Plast Surg 1999, 43: 632). That is, an animal was shaved at its back under anesthesia with ether, and skin in 2×2 cm size was excised together with panniculus carnosus in same size to make two complete skin-excised wounds per animal.
Healings of the wounds were observed on the 1st day, 4th day, 7th day, 12h day, 15th day, 21st day and 28th day from the operation. An area of the wounds was obtained as the product of the average vertical length and the average horizontal length which were measured along with a direction of the longest part in the wound.
A test compound was dissolved in sterile physiological saline together with gum arabic. Concentrations of the test compound and gum arabic were adjusted to 30 mg/mL and 5% respectively. The preparation was subcutaneously injected at the dose of 10 mg/kg every day. The administration was started on 6 days before the operation and continued to 28 days after the operation.

[3] abbreviates: 30 mg/kg subcutaneously every day for 21 days, one value per animal, 30 mg/kg.

In the case of `C[C@@H](OC(=O)[C@]1(Oc2ccc(F)cc2)CCC(=O)O1)c1ccc2ccccc2c1` [compound (I-1), (R)-1-naphthalen-2-ylethyl (S)-2-(4-fluorophenoxy)-5-oxotetrahydrofuran-2-carboxylate], in test [1] (30 mg/kg subcutaneously), the “cases with increased regeneration-promoting CD11b^+CD2^+ macrophages to glomerular lesions” value was “two of four cases”, the “cases with increased regeneration-promoting CD11b^−CD2^+ macrophages to tubulointerstitial lesions” value is “three of four cases”, the “difference in serum creatinine” value is given as “no difference” and the “pathological improvement of glomerular lesions (cases)” value is “no glomerular lesion was improved”. In addition, the “pathological improvement of tubulointerstitial lesions (cases)” value in test [1] (30 mg/kg subcutaneously) is recorded as “three of four cases”. Moreover, in test [1] (setting [3]), the “Coincidence of two regeneration macrophages being positive” value is recorded as “Not coincident; also recorded: Coincident”; the “Glomerular lesions: proportion of lesioned glomeruli (%)” value was 29% and 39% and 57% and 67%; the “Number of regeneration CD11b^+CD2^+ macrophages to glomerular lesions: number of positive cells per glomerulus” value was 0.5 cells per glomerulus and 2.0 cells per glomerulus and 0.0 cells per glomerulus and 1.3 cells per glomerulus; the “Number of regeneration CD11b^−CD2^+ macrophages to tubulointerstitial lesions: number of positive cells (CD11b) in five fields of 200× magnification” value was 24 cells in five fields of 200× m and 140 cells in five fields of 200× m and 59 cells in five fields of 200× m and 41 cells in five fields of 200× m. In addition, in test [1] (setting [3]), the “Regeneration CD11b^+CD2^+ macrophages to glomerular lesions, Determination: increase = +” value is listed as “+ (a case of existing not less than one positive cell per glomerulus was considered as positive (+))”; the “Regeneration CD11b^−CD2^+ macrophages to tubulointerstitial lesions, Determination: increase +” value is given as “+ (a number of not more than 60 CD11b positive cells was considered as positive (+))”; the Serum creatinine is 3.0 mg/dL and 2.7 mg/dL and 2.8 mg/dL and 2.2 mg/dL; the “Tubulointerstitial lesions: level of lesions (quality)” value was 7.0 and 4.0 and 3.0 (2×). The “Excised wound area (cm^2)” value in test [2] (1st day after complete skin excision) was 3.38 cm^2. The “Excised wound area (cm^2)” value in test [2] (4th day after complete skin excision) was found to be 2.10 cm^2. In test [2] (7th day after complete skin excision), the “Excised wound area (cm^2)” value was 1.45* cm^2. Further, the “Excised wound area (cm^2)” value in test [2] (12th day after complete skin excision) was 0.56* cm^2. In addition, the “Excised wound area (cm^2)” value in test [2] (15th day after complete skin excision) amounted to 0.51 cm^2. Besides, in test [2] (21st day after complete skin excision), the “Excised wound area (cm^2)” value is reported as 0.40 cm^2. Further, the “Crust formation/number of wound” value in test [2] (21st day after the operation) is 0/8. Further, the “crust formation on the surface of repaired wounds (in words)” value in test [2] (28th day) is “no crust formation occurred”. Also, the “Excised wound area (cm^2)” value in test [2] (28th day after complete skin excision) is listed as 0.18* cm^2. Also, the “Crust formation/number of wound” value in test [2] (28th day after the operation) was 0/8. For the same compound, the “promoting effect on wound healing (in words)” value in test [2] (versus the control group, 10 mg/kg) was “more promoting effect on wound healing at 7th day to 12th day after the operation; also recorded: in 28th day of healing period, it showed promoting effect on wound healing; also recorded: promoting effect on healing of dermis and epidermis including panniculus carnosus”.
